Data from patent US20020155172A1, “Methods and compounds for decreasing cell toxicity or death” (priority 2000, published 2002).

Assays:
[1] = tested on: neuroblastoma (SHSY) cells transfected with Q79-GFP; test: Expanded polyglutamine aggregation and cell death in neuroblastoma (SHSY) cells; type: cell-based; conditions: Congo red 1.5 to 100 nM
Protocol: Cells, including neuroblastoma cells, HeLa cells, primary neuronal cells, and primary embryonic neuronal cells were transiently transfected with the plasmid […]-GFP, encoding 79 glutamines followed by the jellyfish green fluorescent protein (Sanchez et al., supra). Expression of […]-GFP was observed 48 or 72 hours after transfection by visual inspection of GFP-positive cells using an inverted fluorescence microscope. In a cell expressing […]-GFP polypeptides, polyglutamine aggregates are formed and the cell dies by apoptosis (Sanchez, supra). Cell viability was determined by morphological criteria characteristic of apoptosis, including cell blebbing, shrinking. Total cell lysates and tissue homogenates were obtained using Buffer A: 1% triton in PBS, containing 10 μg/ml DNAse and protease inhibitors; leupeptin 20 μg/ml, aprotinin 20 u/ml, and PMSF 100 mM. […] These effects were determined by visual inspection of GFP-positive cells under an inverted fluorescence microscope. […] Cells expressing […]-GFP were incubated in cell culture media containing Congo red and evaluated for the effect of Congo red on polyglutamine aggregation and cell death. […] The cells were then scored the presence of visible oligomers by fluorescence microscopy. Cells in which oligomers were not detected at this level of resolution were scored as cells lacking polyglutamine aggregates. […]

cells; primary neurons = test: Compound toxicity in cells; type: cell-based
[2] = tested on: HeLa cells transfected with Q79-GFP; test: Q79-GFP aggregates in HeLa cells by fluorescence microscopy; type: cell-based; conditions: 100 μM
Protocol: FIG. 5I is a set of scanned images of HeLa cells expressing Q79-GFP and subsequently treated with Congo red (100 μM), or ZVAD (100 μM), as detected by fluorescence microscopy.
Changes in energy metabolism have been detected in brains of pre-symptomatic HD animal models, and in pre-symptomatic patients. We detected a pronounced decline in ATP levels upon expanded polyglutamine expression in cells as early as 24 hours. […] Expression of Q79-GFP in HeLa cells transfected with Q79-GFP and subsequently treated with Congo red (100 μM), or ZVAD (100 μM), is shown in FIG. 51.

[3] = tested on: HeLa cells expressing Q79 expanded polyglutamine repeats; test: Cell death induced by TNF-α/CHX, Fas/CHX or H2O2; type: cell-based; conditions: 100 μM, one hour before the inducing agent; cell death 48 hours later
Protocol: FIG. 5F is a graph of the effects of Congo red, ZVAD, or vehicle (NT) on cell death when the cells are induced to die by receptor mediated pathways (TNF-α/cycloheximide (CHX), Fas/cycloheximide (CHX)), or necrosis (hydrogen peroxide).
HeLa cells expressing Q79 expanded polyglutamine repeats were treated with 100 μM Congo red, or 100 μM ZVAD (a positive control) for one hour prior to the addition of the apoptosis-inducing agent, and cell death was determined 48 hours later. […] Finally we tested whether Congo red can inhibit apoptosis induced by overexpression of caspase-1, -8, or -11.

[4] = tested on: Q79-Q79 interaction (Q79-ECFP/EYFP-Q79); test: FRET-Q79 assay; type: biochemical; conditions: aggregates treated with 100 Congo red; 488 nm excitation, 527 nm emission
Text: To rule out the possibility that Congo red merely disrupts large polyglutamine aggregates without affecting oligomeric polyglutamine interaction that may be invisible to fluorescence microscopy, we designed a FRET-Q79 assay. In this assay, the expression constructs EYFP-Q79 (enhanced yellow fluorescent protein fused to a polypeptide containing 79 polyglutamines) and Q79-ECFP (enhanced cyan fluorescent protein fused to a polypeptide containing 79 polyglutamines) were co-transfected into HeLa cells. The EYFP-HAQ79 was made by ligation of a SacI/Notl digested insert from HA-Q79 CMX (Sanchez et al., 1999, supra) into the plasmid CFP-C1, described by Sanchez et al. (supra) after Sac1 digestion and blunting. […]
The lysates were passed through a needle to ensure release of polyglutamine inclusions from the nuclei. […] The fluorescence resonance energy transfer (FRET) was determined from polyglutamine oligomers formed in Q79-ECFP/EYFP-Q79 expressing cells upon addition of PBS or Congo red. Specifically, the interaction of the tagged Q79 polypeptides was detected by immunofluorescence at 488 nm excitation and 527 nm emission for FRET using a Wallach plate reader, and the ratio of the immunofluorescence was determined. Immunofluorescence levels were also detected for each ECFP and EYFP independent of the effect of Congo red on fluorescence emission wavelengths.

[5] = tested on: Q79-expressing HeLa cells; test: Turnover of S35-labeled expanded polyglutamine repeats; type: cell-based
Protocol: FIG. 8A is a set of scanned autoradiograms showing the effect of Congo red on expanded polyglutamine repeat turn-over, as assessed by relative levels of S^35 labeled polyQ (Q79) protein, with or without Congo red treatment. Q79-HA expressing cells were metabolically labeled with S^35 methionine for one hour. Cells were harvested one and 24 hours after labeling. PolyQ protein was immunoprecipitated with an anti-HA antibody, and the proteins were separated by electrophoresis before blotting.
We next determined whether inhibition and disruption of Q79 oligomers changed its turnover kinetics by measuring pulse-S^35-labeled polyglutamine levels in the presence or absence of Congo red.

Question: How did the cell death [1] turn out when `Nc1c(/N=N/c2ccc(-c3ccc(/N=N/c4cc(S(=O)(=O)O)c5ccccc5c4N)cc3)cc2)cc(S(=O)(=O)O)c2ccccc12` [Congo red, diphenyldiazo-bis-alpha-napthylaminesulfonate] was run?
Answer: The cell death was “significantly reduced cell death”.

Question: What about the “formation of polyglutamine aggregates” value [1] of the same molecule?
Answer: Its value is “inhibited the formation of polyglutamine aggregates”.

Question: And the “compound toxicity in cells” value (cells; primary neurons)?
Answer: The value was “not toxic even to primary neurons”.

Question: And the “polyglutamine aggregates in cells” value [2]?
Answer: Its value is “displayed fewer polyglutamine aggregates”.

Question: What about the “cell death induced by TNF-α/CHX, Fas/CHX, or H2O2” value [3] of the same molecule?
Answer: Its value is “No effect”.

Question: What about the FRET ratio [4] of the same molecule?
Answer: The FRET ratio was “significantly reduced”.

Question: And the “steady state levels of HA-Q79” value ([5]; Western blot, compared to negative controls)?
Answer: The value was “only slightly reduced steady state levels”.

Question: What about the “level of S35-labeled polyglutamine” value ([5]; after chase for 24 hours, versus control cells) of the same molecule?
Answer: Its value is “more than two fold lower”.

Question: And the “expression (synthesis) of expanded polyglutamine” value ([5]; one hour after chase)?
Answer: The value was “did not prevent the expression of expanded polyglutamine”.

Question: What about the “turnover rate of S35-labeled Q79” value ([5]; versus control cells) of the same molecule?
Answer: The value was “at least a two fold higher turnover rate”.
